# What was measured:
# P2X7R = biological target: T1, P2X7R (Mus musculus, UniProt Q9Z1M0); experiment: Entry of ethidium bromide into HT-22 cells; type: cell-based; settings: HT-22 cells, 60 minutes, 10^−4M ethidium bromide; 1 μM to 1 mM tested
# T1 construct: an immortalised mouse hippocampal cell line expressing the endogenous P2X7 gene; endogenous in cells; host or cells: HT-22 mouse hippocampal cell line
# T1 sequence (Q9Z1M0 1-595): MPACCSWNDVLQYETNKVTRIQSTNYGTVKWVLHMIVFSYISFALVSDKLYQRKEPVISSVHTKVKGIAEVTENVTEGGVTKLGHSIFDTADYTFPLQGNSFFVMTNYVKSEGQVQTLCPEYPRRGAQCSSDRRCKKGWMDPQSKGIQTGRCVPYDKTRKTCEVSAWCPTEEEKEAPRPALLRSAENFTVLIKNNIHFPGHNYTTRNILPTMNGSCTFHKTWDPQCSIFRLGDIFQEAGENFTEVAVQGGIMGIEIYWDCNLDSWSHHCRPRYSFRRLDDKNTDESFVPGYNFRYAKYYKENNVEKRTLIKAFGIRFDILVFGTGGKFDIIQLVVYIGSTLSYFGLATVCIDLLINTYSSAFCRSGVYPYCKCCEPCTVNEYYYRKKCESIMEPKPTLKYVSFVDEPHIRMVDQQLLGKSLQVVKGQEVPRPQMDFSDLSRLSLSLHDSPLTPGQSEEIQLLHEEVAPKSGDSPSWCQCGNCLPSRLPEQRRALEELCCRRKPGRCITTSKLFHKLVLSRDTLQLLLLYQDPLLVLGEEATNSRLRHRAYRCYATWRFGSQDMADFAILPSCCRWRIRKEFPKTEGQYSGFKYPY
# Source text: Yet another method of measuring P2X7R activity involves the entry of ethidium bromide into P2X7R expressing cells. Activation of P2X7R by an agonist allows the entry of ethidium bromide which binds nuclear DNA and emits a fluorescence signal. Alternatively, the propidium dye YOPRO-1 can be substituted for ethidium bromide. An increase in fluorescence can be used as a measure of P2X7 receptor activation. Therefore, the assay can be used to test and quantify the effect of an agent or compound with agonist properties on P2X7R. In the present example, 10^3 HT-22 cells were seeded per well in a 96-well flat bottom microtitre plates and incubated at 37° C./5% CO2 in DMEM medium containing 10% FCS until the cells attached to the culture surface. […] The number of fluorescent cells which have integrated the ethidium bromide to the DNA can then be counted using a fluorescent microscope (Zeiss, Germany). […] Alternatively, ethidium bromide fluorescence can be measured using a Perkin-Elmer fluorescent plate reader (excitation 520 nm, emission 595 nm, slit widths: Ex 15 nm, Em 20 nm). From the readings obtained, a pIC50 figure can be calculated for each candidate agent or compound. […] The specificity of an agonist for P2X7R can be evaluated by pre-incubation of the cells for 60 minutes with 100 μM o-ATP before adding the agonist and ethidium bromide dye.
# mice = experiment: Open field test (locomotor activity); settings: 50 μM BzATP, 24 hours after injection, vs vehicle
# Protocol: Locomotor activity was monitored for a period of 30 minutes using a video camera. Overall distance traveled by the animals during the testing period was then analysed by means of VideoMot2 computer software (TSE GmbH, Bad Homburg).
substance,measurement,setting,value
2′-3′-O-(4-Benzoylbenzoyl)adenosine 5′-triphosphate [BzATP],BzATP concentrations that increased the number of fluorescent nuclei,P2X7R,above 100 μM
same,"locomotor activity (overall distance traveled, 30 minutes)",mice,No difference in locomotor activity

# Source: US7767398B2, “Means and methods for diagnosing and treating affective disorders” (Affectis Pharmaceuticals AG, priority 2003, dated 2010)
